Measured values taken from paper doi:10.1101/2025.06.03.657556v1 (biorxiv, 2025).

Assays:
RhoA (HEK 293F cells) = RhoA (HEK 293F cells) (Homo sapiens, UniProt P61586); assay: fluorescent RhoA-GTP probe, F488/F405 ratio, HEK […] cells; type: cell-based
RhoA = RhoA (Homo sapiens, UniProt P61586); assay: surface plasmon resonance; type: binding
Chain of RhoA (P61586 1-190): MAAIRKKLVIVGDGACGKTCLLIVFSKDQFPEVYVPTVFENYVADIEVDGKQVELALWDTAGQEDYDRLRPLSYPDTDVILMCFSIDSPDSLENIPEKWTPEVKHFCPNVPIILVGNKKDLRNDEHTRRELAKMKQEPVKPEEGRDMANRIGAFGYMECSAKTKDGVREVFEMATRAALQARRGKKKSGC

Chain of RhoA (HEK 293F cells) (P61586 1-190): as above

- IC50 (RhoA (HEK 293F cells)): 25.7 ± 1.18 nM
- Kd (RhoA): 73.2 nM
Structure (SMILES): CCc1cccc([C@@H](O)CO)c1 [AH001]
